Measured values taken from US11548884B2, “Cyclic amidine compounds for the treatment of autoimmune disease” (Hoffmann-La Roche Inc., priority 2018, dated 2023).

biological target: T1, human TLR7 (Homo sapiens, UniProt Q9NYK1); assay: HEK293-Blue-hTLR-7 cells assay (SEAP reporter, R848 stimulation); assay type: cell-based; conditions: HEK293-Blue-hTLR7 cells, R848 ligand, 20 h incubation
T1 sequence (Q9NYK1 27-1049): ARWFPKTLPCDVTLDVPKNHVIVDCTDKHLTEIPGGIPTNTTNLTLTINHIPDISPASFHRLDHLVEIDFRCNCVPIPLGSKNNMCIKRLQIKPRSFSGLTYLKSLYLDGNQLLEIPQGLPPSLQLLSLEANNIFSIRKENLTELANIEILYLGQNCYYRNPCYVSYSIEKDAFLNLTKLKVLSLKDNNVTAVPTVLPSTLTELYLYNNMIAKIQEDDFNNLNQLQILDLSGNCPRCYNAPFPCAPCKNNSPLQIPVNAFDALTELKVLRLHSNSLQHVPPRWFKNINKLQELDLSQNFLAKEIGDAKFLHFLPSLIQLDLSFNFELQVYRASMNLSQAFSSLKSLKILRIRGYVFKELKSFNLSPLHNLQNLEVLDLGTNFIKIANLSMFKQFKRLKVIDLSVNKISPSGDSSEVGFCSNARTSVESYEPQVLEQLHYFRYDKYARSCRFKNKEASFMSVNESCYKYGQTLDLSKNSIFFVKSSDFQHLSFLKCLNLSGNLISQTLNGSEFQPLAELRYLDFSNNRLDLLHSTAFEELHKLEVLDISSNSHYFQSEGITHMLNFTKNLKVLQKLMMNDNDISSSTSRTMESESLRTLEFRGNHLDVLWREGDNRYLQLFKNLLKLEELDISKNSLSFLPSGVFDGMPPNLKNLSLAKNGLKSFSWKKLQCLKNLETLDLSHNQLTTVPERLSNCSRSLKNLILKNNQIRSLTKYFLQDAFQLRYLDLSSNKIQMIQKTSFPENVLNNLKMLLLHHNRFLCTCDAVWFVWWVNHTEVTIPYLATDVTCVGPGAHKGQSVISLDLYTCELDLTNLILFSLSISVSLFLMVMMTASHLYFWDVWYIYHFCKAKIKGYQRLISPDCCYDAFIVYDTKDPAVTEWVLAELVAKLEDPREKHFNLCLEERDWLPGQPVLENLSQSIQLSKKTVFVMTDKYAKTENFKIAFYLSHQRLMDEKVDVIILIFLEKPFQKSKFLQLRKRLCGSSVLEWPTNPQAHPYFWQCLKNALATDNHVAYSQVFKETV
Experimental: The following tests were carried out in order to determine the activity of the compounds of formula (I) in HEK293-Blue-hTLR-7/8/9 cells assay.
HEK293-Blue-hTLR-7 Cells Assay:
A stable HEK293-Blue-hTLR-7 cell line was purchased from InvivoGen (Cat. #: hkb-htlr7, San Diego, Calif., USA). These cells were originally designed for studying the stimulation of human TLR7 by monitoring the activation of NF-κB. A SEAP (secreted embryonic alkaline phosphatase) reporter gene was placed under the control of the IFN-β minimal promoter fused to five NF-κB and AP-1-binding sites. The SEAP was induced by activating NF-κB and AP-1 via stimulating HEK-Blue hTLR7 cells with TLR7 ligands. Therefore the reporter expression was declined by TLR7 antagonist under the stimulation of a ligand, such as R848 (Resiquimod), for incubation of 20 h. The cell culture supernatant SEAP reporter activity was determined using QUANTI-Blue™ kit (Cat. #: rep-qb1, Invivogen, San Diego, Calif., USA) at a wavelength of 640 nm, a detection medium that turns purple or blue in the presence of alkaline phosphatase.
HEK293-Blue-hTLR7 cells were incubated at a density of 250,000˜450,000 cells/mL in a volume of 170 μL in a 96-well plate in Dulbecco's Modified Eagle's medium (DMEM) containing 4.5 g/L glucose, 50 U/mL penicillin, […], […], 2 mM L-glutamine, 10% (v/v) heat-inactivated fetal bovine serum with addition of 20 μL test compound in a serial dilution in the presence of final DMSO at 1% and 10 μL of 20 uM R848 in above DMEM, perform incubation under 37° C. in a CO2 incubator for 20 h. Then 20 μL of the supernatant from each well was incubated with 180 μL Quanti-blue substrate solution at 37° C. for 2 h and the absorbance was read at 620-655 nm using a spectrophotometer. The signalling pathway that TLR7 activation leads to downstream NF-κB activation has been widely accepted, and therefore similar reporter assay was modified for evaluating TLR7 antagonist.

| IC50 | Structure (SMILES) |
| --- | --- |
| 40 nM | C[C@@H]1CN(c2ccc(C#N)c3ncccc23)C[C@H](C2=Nc3cccc(N4CCNCC4)c3CN2)O1 [Example 6, 5-[(2R,6R)-2-methyl-6-(5-piperazin-1-yl-3,4-dihydroquinazolin-2-yl)morpholin-4-yl]quinoline-8-carbonitrile] |
| 12 nM | C[C@@H]1CN(c2ccc(C#N)c3ncccc23)C[C@H](C2=Nc3ccc(N4CCNCC4)cc3CN2)O1 [Example 7, 5-[(2R,6R)-2-methyl-6-(6-piperazin-1-yl-3,4-dihydroquinazolin-2-yl)morpholin-4-yl]quinoline-8-carbonitrile] |
| 18 nM | C[C@@H]1CN(c2ccc(C#N)c3ncccc23)C[C@H](C2=Nc3cc(N4CCNCC4)ccc3CN2)O1 [Example 8, 5-[(2R,6R)-2-methyl-6-(7-piperazin-1-yl-3,4-dihydroquinazolin-2-yl)morpholin-4-yl]quinoline-8-carbonitrile] |
| 36 nM | C[C@@H]1CN(c2ccc(C#N)c3ncccc23)C[C@H](C2=Nc3c(cccc3N3CCNCC3)CN2)O1 [Example 9, 5-[(2R,6R)-2-methyl-6-(8-piperazin-1-yl-3,4-dihydroquinazolin-2-yl)morpholin-4-yl]quinoline-8-carbonitrile] |
| 83 nM | C[C@@H]1CN(c2ccc(C#N)c3ncccc23)C[C@H](C2=Nc3cccc(N4CCN(C)CC4)c3CN2)O1 [Example 12, 5-[(2R,6R)-2-methyl-6-[5-(4-methylpiperazin-1-yl)-3,4-dihydroquinazolin-2-yl]morpholin-4-yl]quinoline-8-carbonitrile] |
| 294 nM | C[C@@H]1CN(c2ccc(C#N)c3ncccc23)C[C@H](C2=Nc3cccc(N4CCC5(CCNC5)C4)c3CN2)O1 (stereo partly drawn) [Example 13, 5-[(2R,6R)-2-[5-(2,7-diazaspiro[4.4]nonan-2-yl)-3,4-dihydroquinazolin-2-yl]-6-methyl-morpholin-4-yl]quinoline-8-carbonitrile] |
| 251 nM | C[C@@H]1CN(c2ccc(C#N)c3ncccc23)C[C@H](C2=Nc3cccc(C4=CCNCC4)c3CCN2)O1 [Example 16, 5-[(2R,6R)-2-methyl-6-[6-(1,2,3,6-tetrahydropyridin-4-yl)-4,5-dihydro-3H-1,3-benzodiazepin-2-yl]morpholin-4-yl]quinoline-8-carbonitrile] |
| 362 nM | C[C@@H]1CN(c2ccc(C#N)c3ncccc23)C[C@H](C2=Nc3ccc(N4CCNCC4)cc3CCN2)O1 [Example 17, 5-[(2R,6R)-2-methyl-6-(7-piperazin-1-yl-4,5-dihydro-3H-1,3-benzodiazepin-2-yl)morpholin-4-yl]quinoline-8-carbonitrile] |
| 130 nM | C[C@@H]1CN(c2ccc(C#N)c3ncccc23)C[C@H](C2=Nc3cccc(C4CCNCC4)c3CN2)O1 [Example 18, 5-[(2R,6R)-2-methyl-6-[5-(4-piperidyl)-3,4-dihydroquinazolin-2-yl]morpholin-4-yl]quinoline-8-carbonitrile] |
